From US4031239A, “Cyclopropanecarboxylates for systemic control of ectoparasites” (American Cyanamid Company, priority 1975, dated 1977)

Assays:
[1] = system: Rhipicephalus sanguineus; Dermacentor variabilis; assay: Systemic ixodicidal activity by the methods of the Examples, stated for both tick species together; assay type: in vivo; conditions: trans and cis; no figures given
Description: (§1) Albino guinea pigs are housed individually and fed guinea pig chow and water ad libitum. One leaf of cabbage per day is also given to each guinea pig.
(§2) To the shaved back of each guinea pig, a capsule made from a 2 inch spud gasket, with the base ground down to provide greater flexibility, is glued using 3M adhesive no. 8001. Five male and five female adult Rhipicephalus sanguineus ticks are placed inside the capsule and allowed to attach to the guinea pig. A gauze material is fastened over the top of the gasket to prevent the ticks from escaping.
(§3) The guinea pigs are given a daily oral dose by gelatin capsule of either 400 or 100 mg per kilogram body weight of the test compound. […]

Stomoxys calcitrans = assay: Animal systemic insecticidal activity, flies fed on mice dosed by gavage (Example 3); assay type: in vivo, Stomoxys calcitrans (stable flies) fed on mice; conditions: 18 hours feeding, mortality at 24 hours
Method: To determine the effectiveness of the compounds of the invention as animal systemic insecticidal agents, test compounds are mixed in 10% acetone-90% sesame oil and administered by gavage to mice each at 25, 100 and/or 400 mg/kg of animal body weight.
Adult, one day old, unfed flies Stomoxys calcitrans are then exposed to the mice for 18 hours to permit them to feed on said mice. Mortality counts are made at 24 hours and data obtained are reported below as percent control of stable flies.

Dermacentor variabilis = assay: Systemic ixodicidal activity, daily oral dosing of tick-infested guinea pigs (Example 2); assay type: in vivo
Rhipicephalus sanguineus = assay: Systemic ixodicidal activity, daily oral dosing of tick-infested guinea pigs (Example 1); assay type: in vivo
Description: as §1
The diet employed in these tests is as follows:
Crude protein not less than 18.0%
Crude fat not less than 4.0%
Crude fiber not more than 16.0%
Added minerals not more than 3.5%
and consists of the following ingredients: Ground wheat, ground yellow corn, dried skimmed milk, soybean meal, dehydrated alfalfa meal, cane molasses, wheat middlings, animal fat preserved with BHA, vitamin B12 supplement; riboflavin supplement, cholin chloride, calcium pantothenate, thiamin, niacin, folic acid, ascorbic acid, vitamin A supplement, D activated sterol (source of Vitamin D3), methionine hydroxy analogue calcium, pyridoxine hydrochloride, vitamin E supplement, dicalcium phosphate, calcium carbonate, iodized salt, copper oxide sulfate, iron sulfate, iron oxide, manganous oxide, cobalt carbonate, zinc oxide.
as §2, §3

[2] = Rhipicephalus sanguineus, in Cavia porcellus, po, read-out: % Tick Mortality

Row | Structure (SMILES) | % Control of Stable Flies (Stomoxys calcitrans; 25 mg/kg by gavage) [%] | % Control of Stable Flies (Stomoxys calcitrans; 100 mg/kg by gavage) [%] | % Control of Stable Flies (Stomoxys calcitrans; 400 mg/kg by gavage) [%] | further results
1 | CC(C)=CC1C(C(=O)OCc2cccc(Oc3ccccc3)c2)C1(C)C (stereo not shown) [cyclopropanecarboxylic acid, 2,2-dimethyl-3-(2-methylpropenyl)-m-phenoxybenzyl ester] |  |  |  | ixodicidal results compared with those in the Examples [1]: Results comparable to those in the Examples
2 | CC1(C)C(C=C(Cl)Cl)C1C(=O)OC(C#N)c1cccc(Oc2ccccc2)c1 (stereo not shown) | 63 | 80 | 96 | 
3 | CC(C)=CC1C(C(=O)OC(C#N)c2cccc(Oc3ccccc3)c2)C1(C)C (stereo not shown) | 30 | 80 | 100 | 
4 | CC1(C)C(C=C(Cl)Cl)C1C(=O)OCc1cccc(Oc2ccccc2)c1 (stereo not shown) [drawing 8] | 36 | 100 |  | 
5 | CC1(C)C(C=C(Cl)Cl)C1C(=O)OCc1cccc(Oc2ccccc2)c1 (stereo not shown) [Cyclopropanecarboxylic acid, 3-(2,2-dichlorovinyl)-2,2-dimethyl-, m-phenoxybenzyl ester] |  |  |  | susceptibility of ticks to the test compound (Dermacentor variabilis; Dermacentor variabilis, compared with Example 1 (Rhipicephalus sanguineus)): somewhat less susceptible; mortality at 100 mg/kg (Dermacentor variabilis; Dermacentor variabilis, in Cavia porcellus, daily oral dose 100 mg/kg, guinea pigs): 0%; mortality at 400 mg/kg (Dermacentor variabilis; Dermacentor variabilis, in Cavia porcellus, daily oral dose 400 mg/kg, guinea pigs): 80%; time after which ticks become moribund and die shortly thereafter (Dermacentor variabilis; method of Example 1, daily oral dose, guinea pigs): about 5 days
6 | CC1(C)C(C=C(Cl)Cl)C1C(=O)OCc1cccc(Oc2ccccc2)c1 (mixture of isomers) [Cyclopropanecarboxylic acid, 3-(2,2-dichlorovinyl)-2,2-dimethyl-m-phenoxybenzyl ester] |  |  |  | mortality at 100 mg/kg (Rhipicephalus sanguineus; [2]): 80%; mortality at 400 mg/kg (Rhipicephalus sanguineus; [2]): 100%; time after initial treatment during which ticks do not appear to be affected (then moribund and die shortly thereafter) (Rhipicephalus sanguineus; daily oral dose 400 or 100 mg/kg, guinea pigs, slight color changes and some reduction in size excepted): about 3 days
